According to patent US9340554B2, “IRAK inhibitors and uses thereof” (Nimbus Iris, Inc., priority 2011, dated 2016):
Where two headings read alike, the source gives them in different places.

Experiments:
[1] = system: LPS induced IL8 production in THP-1 cells; assay: LPS induced THP-1 cell cytokine production assay, IL8 (HTRF); assay type: cell-based; conditions: Homo sapiens
Protocol: (§1) Provided compounds were also assayed in an LPS (Lipopolysacharide) induced THP-1 cell cytokine (TNFα and IL8) production assay. The protocol for this assay was as follows below. THP-1 cells from ATCC (TIB-202) were cultured in RPMI Medium 1640 (Invitrogen, Cat No. […] LPS-EK ultra pure (Invivogen, Cat No. tlrl-peklps) was used to induce IL8 and TNFα production, that was detected in the cell culture supernatant by IL8 HTRF kit (Cisbio, Cat No. 62IL8PEB) and TNFα HTRF kit (Cisbio, Cat No. 62[…]), as per manufacturer instructions. Cells were cultured in 96 well assay plates at 100,000 cells per well, and compounds diluted in final 0.3% DMSO were pre-incubated with cells for 1 hour prior to stimulation with 300 ng/mL LPS. […] The compound numbers correspond to the compound numbers in Table 1.

[2] = system: LPS induced TNFα production in THP-1 cells; assay: LPS induced THP-1 cell cytokine production assay, TNFα (HTRF); assay type: cell-based; conditions: Homo sapiens
Protocol: as §1

IRAK4 = molecular target: T1, IRAK4 (Homo sapiens, UniProt Q9NWZ3); assay: IRAK-4 activity inhibition assay (Caliper, Peptide 8, 37 μM ATP); assay type: biochemical; conditions: 3.5 nM IRAK4, 1.5 μM Peptide 8, 37 μM ATP, 28° C. 40 minutes; read-out: IRAK-4 activity inhibition IC50
T1 construct: purchased CARNA Bioscience 09-145
T1 sequence (Q9NWZ3 1-460): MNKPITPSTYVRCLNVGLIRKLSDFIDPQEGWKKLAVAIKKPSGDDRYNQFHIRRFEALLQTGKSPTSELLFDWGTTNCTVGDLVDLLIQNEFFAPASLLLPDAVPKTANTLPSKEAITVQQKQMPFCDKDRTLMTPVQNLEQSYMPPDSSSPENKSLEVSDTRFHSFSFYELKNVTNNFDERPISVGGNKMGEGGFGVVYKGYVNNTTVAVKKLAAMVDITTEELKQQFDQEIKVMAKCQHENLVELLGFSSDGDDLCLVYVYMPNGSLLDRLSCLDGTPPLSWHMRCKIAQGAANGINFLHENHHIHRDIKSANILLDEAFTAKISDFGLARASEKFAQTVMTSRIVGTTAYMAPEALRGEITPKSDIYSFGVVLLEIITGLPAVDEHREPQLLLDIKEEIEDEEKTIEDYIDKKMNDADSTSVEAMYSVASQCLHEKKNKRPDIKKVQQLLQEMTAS

[3] = THP-1 cells, 300 ng/mL LPS, 1 hour pre-incubation, supernatant at 5 hours / 16 hours, read-out: IL8 production IC50
[4] = THP-1 cells, 300 ng/mL LPS, 1 hour pre-incubation, supernatant at 5 hours, read-out: TNFα production IC50

`CN(C)[C@H]1CC[C@H](Nc2ncnc3sc4c(c23)CCC4)CC1` [Compound I-12, trans-N^1-(6,7-dihydro-5H-cyclopenta[4,5]thieno[2,3-d]pyrimidin-4-yl)-N^4,N^4-dimethylcyclohexane-1,4-diamine] was tested, and the IC50 ([1]; THP-1, read-out: IL8 production IC50) was 0.5 to 1 µM and the IC50 ([2]; THP-1, read-out: TNFα production IC50) was 0.5 to 1 µM.
`CN(CC(=O)N1CCCC1)[C@H]1CC[C@H](Nc2ncnc3sc4c(c23)CCC4)CC1` [Compound I-124, 2-[methyl[4-([7-thia-9,11-diazatricyclo[6.4.0.0[2,6]]dodeca-1(12),2(6),8,10-tetraen-12-yl]amino)cyclohexyl]amino]-1-(pyrrolidin-1-yl)ethan-1-one] was tested, and the IC50 [1, 3] was 0.5 to 1 µM, the IC50 [2, 4] was 1 to 5 µM and the IC50 (IRAK4) was less than 5 µM.
`CN(CC(=O)N1CCCC1)[C@H]1CC[C@H](Oc2ncnc3sc4c(c23)CCC4)CC1` [Compound I-133] was tested, and the IC50 [1, 3] was 1 to 5 µM, the IC50 [2, 4] was 1 to 5 µM and the IC50 (IRAK4) was less than 5 µM.
`CN(Cc1cccc(C(N)=O)c1)[C@H]1CC[C@H](Nc2ncnc3sc4c(c23)CCC4)CC1` [Compound I-166, 3-((((1r,4r)-4-((6,7-dihydro-5H-cyclopenta[4,5]thieno[2,3-d]pyrimidin-4-yl)amino)cyclohexyl)(methyl)amino)methyl)benzamide] showed an IC50 (IRAK4) of less than 5 µM.
`CN(Cc1cccc(C(=O)O)c1)[C@H]1CC[C@H](Nc2ncnc3sc4c(c23)CCC4)CC1` [Compound I-167, 3-([methyl[4-([7-thia-9,11-diazatricyclo[6.4.0.0^[2,6]]dodeca-1(8),2(6),9,11-tetraen-12-yl]amino)cyclohexyl]amino]methyl)benzoic acid] was tested, and the IC50 (IRAK4) was less than 5 µM.
For `CN(CCc1ccccc1)[C@H]1CC[C@H](Nc2ncnc3sc4c(c23)CCC4)CC1` [Compound I-168, 1-N-methyl-1-N-(2-phenylethyl)-4-N-[7-thia-9,11-diazatricyclo[6.4.0.0^[2,6]]dodeca-1(8),2(6),9,11-tetraen-12-yl]cyclohexane-1,4-diamine], the IC50 (IRAK4) was less than 5 µM.
`COCCN(C)[C@H]1CC[C@H](Nc2ncnc3sc4c(c23)CCC4)CC1` [Compound I-169, 1-N-(2-methoxyethyl)-1-N-methyl-4-N-[7-thia-9,11-diazatricyclo[6.4.0.0^[2,6]]dodeca-1(8),2(6),9,11-tetraen-12-yl]cyclohexane-1,4-diamine] gave an IC50 (IRAK4) of less than 5 µM.
`CN(C)[C@H]1CC[C@H](Nc2nc(Nc3ccccc3)nc3sc4c(c23)CCC4)CC1` [Compound I-201, 12-N-[4-(dimethylamino)cyclohexyl]-10-N-phenyl-7-thia-9,11-diazatricyclo[6.4.0.0[2,6]]dodeca-1(8),2(6),9,11-tetraene-10,12-diamine] was tested, and the IC50 [1, 3] was 1 to 5 µM and the IC50 [2, 4] was 1 to 5 µM.
